Experimental data taken from ChEMBL document CHEMBL3600292, “Anti-HIV screening for cell-penetrating peptides using chloroquine and identification of anti-HIV peptides derived from matrix proteins” (Bioorg Med Chem, 2015).
Starred links: 1 amine or outer side, 2 acyl side, 3 side chain; linkers in the order of their positions; H or OH if unused. Positions of bridges follow the written chain, without caps; N, C: chain ends. Non-standard residues stand in square brackets, D forms with d. Residues, ends and D or L forms follow the SMILES beside them. Chains are numbered I, II in the order given. *: point of attachment. Orn = NCCC[C@H](N)C(=O)O; X1 = O=C(C[*:1])[*:2]; Cam = NC(=O)C*

How the values were obtained:
[1] = Cytotoxicity against human MT4 cells by MTT assay in presence of 5 uM of chloroquine; assay type: cell-based
[2] = Cytotoxicity against human MT4 cells by MTT assay in presence of 10 uM of chloroquine; assay type: cell-based
[3] = tested on: Human immunodeficiency virus 1; test: Antiviral activity against T-cell line-tropic HIV1 NL4-3 infected in human MT4 cells assessed as inhibition of virus-induced cytopathogenicity after 5 days by MTT assay in presence of 2.5 uM of chloroquine; assay type: functional, organism-based; conditions: Human immunodeficiency virus 1, NL4-3, MT4, 120 h
[4] = tested on: Human immunodeficiency virus 1; test: Antiviral activity against T-cell line-tropic HIV1 NL4-3 infected in human MT4 cells assessed as inhibition of virus-induced cytopathogenicity after 5 days by MTT assay; assay type: functional, organism-based; conditions: Human immunodeficiency virus 1, NL4-3, MT4, 120 h
[5] = tested on: Human immunodeficiency virus 1; test: Antiviral activity against T-cell line-tropic HIV1 NL4-3 infected in human MT4 cells assessed as inhibition of virus-induced cytopathogenicity after 5 days by MTT assay in presence of 10 uM of chloroquine; assay type: functional, organism-based; conditions: Human immunodeficiency virus 1, NL4-3, MT4, 120 h
[6] = tested on: Human immunodeficiency virus 1; test: Antiviral activity against T-cell line-tropic HIV1 NL4-3 infected in human MT4 cells assessed as inhibition of virus-induced cytopathogenicity after 5 days by MTT assay in presence of 5 uM of chloroquine; assay type: functional, organism-based; conditions: Human immunodeficiency virus 1, NL4-3, MT4, 120 h
[7] = Cytotoxicity against human MT4 cells by MTT assay; assay type: cell-based
[8] = tested on: Human immunodeficiency virus 1; test: Antiviral activity against macrophage-tropic HIV1 NL(AD8) infected in human PM1 expressing CCR5 cells assessed as inhibition of virus-induced cytopathogenicity after 5 days by MTT assay in presence of 5 uM of chloroquine; assay type: functional, organism-based; conditions: Human immunodeficiency virus 1, NL(AD8), PM1/CCR5, 120 h
[9] = Cytotoxicity against human MT4 cells by MTT assay in presence of 2.5 uM of chloroquine; assay type: cell-based
[10] = Cytotoxicity against human PM1 cells expressing CCR5 by MTT assay in presence of 5 uM of chloroquine; assay type: cell-based

| SMILES | CC50 [1] [µM] | CC50 [2] [µM] | EC50 [3] [µM] | EC50 [4] [µM] | EC50 [5] [µM] | EC50 [6] [µM] | CC50 [7] [µM] | EC50 [8] [µM] | CC50 [9] [µM] | CC50 [10] [µM] |
| --- | --- | --- | --- | --- | --- | --- | --- | --- | --- | --- |
| CC[C@H](C)[C@H](NC(=O)[C@H](CCCNC(=N)N)NC(=O)[C@H](CCC(N)=O)NC(=O)[C@H](Cc1cnc[nH]1)NC(=O)[C@@H](NC(=O)[C@H](CO)NC(=O)[C@H](Cc1ccc(O)cc1)NC(=O)[C@H](CC(C)C)NC(=O)[C@@H](NC(=O)[C@H](C)NC(=O)[C@@H](NC(=O)[C@@H](NC(C)=O)[C@@H](C)O)[C@@H](C)CC)C(C)C)C(C)C)C(=O)N[C@@H](CC(=O)O)C(=O)N[C@H](C(=O)N[C@@H](CCCCN)C(=O)NCC(=O)N[C@@H](CSCC(N)=O)C(N)=O)C(C)C (Ac-TIAVLYSVHQRIDVKGC(Cam)-NH2) | 47 | > 50 | > 50 | > 50 | 0.65 | 22 | > 50 | > 50 | > 50 | > 50 |
| CC[C@H](C)[C@H](NC(=O)[C@H](CCCNC(=N)N)NC(=O)[C@H](CCC(N)=O)NC(=O)[C@H](Cc1c[nH]cn1)NC(=O)[C@@H](NC(=O)[C@H](CO)NC(=O)[C@H](Cc1ccc(O)cc1)NC(=O)[C@H](CC(C)C)NC(=O)[C@@H](NC(=O)[C@H](C)NC(=O)[C@@H](NC(=O)[C@@H](NC(C)=O)[C@@H](C)O)[C@@H](C)CC)C(C)C)C(C)C)C(=O)N[C@@H](CC(=O)O)C(=O)N[C@H](C(=O)N[C@@H](CCCCN)C(=O)NCC(=O)N[C@@H](CSCC(=O)N[C@@H](CCCNC(=N)N)C(=O)N[C@@H](CCCN)C(=O)N[C@@H](CCCNC(=N)N)C(=O)N[C@@H](CCCN)C(=O)N[C@@H](CCCNC(=N)N)C(=O)N[C@@H](CCCN)C(=O)N[C@@H](CCCNC(=N)N)C(=O)N[C@@H](CCCN)C(N)=O)C(N)=O)C(C)C (I: Ac-TIAVLYSVHQRIDVKGC-NH2 / II: R[Orn]R[Orn]R[Orn]R[Orn]-NH2; linker I:17-II:N via X1) | 11 | 9.1 | 1.6 | 6.3 | 0.2 | 0.62 | 10 | 1.1 | 6.1 | 7.2 |
| CC[C@H](C)[C@H](NC(=O)[C@H](CCCNC(=N)N)NC(=O)[C@H](CCC(N)=O)NC(=O)[C@H](Cc1c[nH]cn1)NC(=O)[C@@H](NC(=O)[C@H](CO)NC(=O)[C@H](Cc1ccc(O)cc1)NC(=O)[C@H](CC(C)C)NC(=O)[C@@H](NC(=O)[C@H](C)NC(=O)[C@@H](NC(=O)[C@@H](NC(=O)[C@H](CC(N)=O)NC(=O)[C@H](Cc1ccc(O)cc1)NC(C)=O)[C@@H](C)O)[C@@H](C)CC)C(C)C)C(C)C)C(=O)N[C@@H](CC(=O)O)C(=O)NCC(=O)N[C@@H](CSCC(=O)N[C@@H](CCCNC(=N)N)C(=O)N[C@@H](CCCN)C(=O)N[C@@H](CCCNC(=N)N)C(=O)N[C@@H](CCCN)C(=O)N[C@@H](CCCNC(=N)N)C(=O)N[C@@H](CCCN)C(=O)N[C@@H](CCCNC(=N)N)C(=O)N[C@@H](CCCN)C(N)=O)C(N)=O (I: Ac-YNTIAVLYSVHQRIDGC-NH2 / II: R[Orn]R[Orn]R[Orn]R[Orn]-NH2; linker I:17-II:N via X1) | 7.7 | – | – | > 7 | – | 1.7 | 7 | 1.4 | – | 7.6 |
| c1cc(CN2CCCNCCNCCCNCC2)ccc1CN1CCCNCCNCCCNCC1 [PLERIXAFOR] | > 50 | > 50 | 0.039 | 0.032 | – | 0.025 | > 50 | > 50 | > 50 | > 50 |
| COC[C@@H](c1ccc(C(F)(F)F)cc1)N1CCN(C2(C)CCN(C(=O)c3c(C)ncnc3C)CC2)C[C@@H]1C [VICRIVIROC] | > 5 | – | – | > 5 | – | > 5 | > 5 | 0.0049 | – | > 5 |
| Cc1cn([C@H]2C[C@H](N=[N+]=[N-])[C@@H](CO)O2)c(=O)[nH]c1=O [ZIDOVUDINE] | > 100 | 31 | 0.015 | 0.12 | – | 0.013 | > 100 | 0.51 | 27 | > 100 |
